pIC50: −log10 of the molar value.
Tests used:
p38MAPKγ (MAPK12) = target: T1, p38MAPKγ (MAPK12) (Homo sapiens, UniProt P53778); assay: p38 MAPKγ enzyme inhibition (Z-LYTE FRET); type: biochemical; details: Table 2A; read-out: IC50 Values for Enzyme Inhibition p38 MAPKγ
T1 construct: purchased Life Technologies
T1 sequence (P53778 1-367): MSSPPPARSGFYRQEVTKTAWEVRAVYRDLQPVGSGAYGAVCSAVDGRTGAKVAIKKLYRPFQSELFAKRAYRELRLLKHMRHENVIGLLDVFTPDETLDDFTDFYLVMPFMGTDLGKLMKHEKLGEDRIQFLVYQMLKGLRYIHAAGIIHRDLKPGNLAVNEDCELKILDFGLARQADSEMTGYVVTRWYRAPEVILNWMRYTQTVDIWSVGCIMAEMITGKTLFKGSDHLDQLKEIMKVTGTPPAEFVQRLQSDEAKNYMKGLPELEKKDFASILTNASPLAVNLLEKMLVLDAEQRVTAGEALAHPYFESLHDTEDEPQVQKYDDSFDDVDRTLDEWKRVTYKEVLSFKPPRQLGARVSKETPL
In short: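 Enzyme (added at 800 ng/mL) was preincubated 2 h at RT with compound (solutions of 40 to 0.0012 μg/mL), then FRET peptide (8 μM) and ATP (400 μM), both as added, were reacted 1 h at RT. Protease development followed for 1 h; phosphorylation was read as the coumarin/fluorescein emission ratio.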

[1] = system: IL-8 release in d-U937 cells; assay: LPS-induced IL-8 release in d-U937 cells; type: cell-based; details: Homo sapiens, dU937, LPS 0.1 μg/mL 4 h
Protocol: U937 cells, a human monocytic cell line, were differentiated into macrophage-type cells by incubation with PMA (100-200 ng/mL) for 48 to 72 h. Cells were pre-incubated with final […] concentrations of test compound for 2 h and were then stimulated with LPS (0.1 μg/mL; from E. coli: O111:B4, Sigma) for 4 h. The supernatant was collected for determination of TNFα and IL-8 concentrations by sandwich ELISA (Duo-set, R&D systems). […] The relative 50% effective concentration (REC50) was determined from the resultant concentration-response curve. The inhibition of IL-8 production was calculated at each concentration of test compound by comparison with vehicle control.

d-U937 cells = assay: Cell viability: MTT assay in differentiated U937 cells; type: cell-based, human; details: 10 μg/mL
In short: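 Viability loss, calculated against 0.5% DMSO vehicle (gains reported negative), was measured by MTT reduction (1 h) and A550 after DMSO solubilisation. Compound exposure of d-U937 cells was 10 μg/mL final, for 24 h in 10% FCS or 4 h in 5% FCS RPMI1640.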

GSK 3α enzyme isoform = target: T2, GSK 3α enzyme isoform (Homo sapiens, UniProt P49840); assay: GSK 3α enzyme inhibition (Z-LYTE FRET); type: biochemical; details: Table 2A; read-out: IC50 Values for Enzyme Inhibition GSK3α
T2 construct: purchased Life Technologies
T2 sequence (P49840 whole entry, canonical isoform): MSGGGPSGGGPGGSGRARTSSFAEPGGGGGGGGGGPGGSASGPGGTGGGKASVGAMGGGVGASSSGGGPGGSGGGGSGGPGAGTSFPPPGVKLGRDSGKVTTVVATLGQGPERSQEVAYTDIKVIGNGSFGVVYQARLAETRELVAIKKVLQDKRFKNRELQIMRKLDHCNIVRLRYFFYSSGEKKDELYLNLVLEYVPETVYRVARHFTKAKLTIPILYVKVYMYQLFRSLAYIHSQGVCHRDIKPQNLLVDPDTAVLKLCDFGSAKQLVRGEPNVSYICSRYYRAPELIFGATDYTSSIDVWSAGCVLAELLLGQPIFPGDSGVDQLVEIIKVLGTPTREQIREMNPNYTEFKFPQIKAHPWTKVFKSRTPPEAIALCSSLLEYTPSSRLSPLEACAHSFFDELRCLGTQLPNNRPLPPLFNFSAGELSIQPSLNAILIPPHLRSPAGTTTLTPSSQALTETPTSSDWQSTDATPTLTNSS
Protocol: The enzyme inhibitory activities of compounds disclosed herein were determined by FRET using synthetic peptides labelled with both donor and acceptor fluorophores (Z-LYTE, Life Technologies, Paisley, UK).
The GSK3a protein (500 ng/mL, 2.5 μL) was incubated with the test compound (2.5 μL at either 40 μg/mL, 12 μg/mL, 4 μg/mL, 1.2 μg/mL, 0.4 μg/mL, 0.12 μg/mL, 0.04 μg/mL, 0.012 μg/mL, 0.004 μg/mL or 0.0012 μg/mL) for 2 h at RT. The FRET peptide (8 μM, 2.5 μL), which is a phosphorylation target for GSK3α, and ATP (40 μM, 2.5 μL) was then added to the enzyme/compound mixture and the resulting mixture incubated for 1 h at RT. Development reagent (protease, 5 μL) was added for 1 h prior to detection in a fluorescence microplate reader (EnVision, Perkin Elmer).
In all cases, the site-specific protease cleaves non-phosphorylated peptide only and eliminates the FRET signal. Phosphorylation levels of each reaction were calculated using the ratio of coumarin emission (donor) over fluorescein emission (acceptor), for which low ratios indicate high phosphorylation and high ratios indicate low phosphorylation levels.

pIC50 (p38MAPKγ (MAPK12))	pIC50 [1]	pIC50 (GSK 3α enzyme isoform)	SMILES	MTT Assay Cell viability at time point indicated in d-U937 Cells, 4 h (d-U937 cells)	MTT Assay Cell viability at time point indicated in d-U937 Cells, 24 h (d-U937 cells)
6.24	7.71	< 5.00	CCc1cnc(Nc2cc(COc3ccc(NC(=O)Nc4cc(C(C)(C)C)nn4-c4ccc(C)cc4)c4ccccc34)ccn2)cn1 [Example 37]	− (−ve and +ve indicate the value is below and above, respectively, the no significant effect threshold defined as 30% inhibition at 10 μg/mL at the time point indicated)	− (−ve and +ve indicate the value is below and above, respectively, the no significant effect threshold defined as 30% inhibition at 10 μg/mL at the time point indicated)
6.42	8.80	5.77	COc1ccc(-n2nc(C(C)(C)C)cc2NC(=O)Nc2ccc(OCc3ccnc(Nc4cncc(C5CC5)n4)c3)c3ccccc23)cc1 [Example 22]	− (−ve and +ve indicate the value is below and above, respectively, the no significant effect threshold defined as 30% inhibition at 10 μg/mL at the time point indicated)	− (−ve and +ve indicate the value is below and above, respectively, the no significant effect threshold defined as 30% inhibition at 10 μg/mL at the time point indicated)
6.64	8.85	< 4.79	Cc1ccc(-n2nc(C(C)(C)C)cc2NC(=O)Nc2ccc(OCc3ccnc(Nc4cnc(C)cn4)c3)c3ccccc23)cc1 [Example 19]	− (−ve and +ve indicate the value is below and above, respectively, the no significant effect threshold defined as 30% inhibition at 10 μg/mL at the time point indicated)	− (−ve and +ve indicate the value is below and above, respectively, the no significant effect threshold defined as 30% inhibition at 10 μg/mL at the time point indicated)
7.37	7.99	6.86	Cc1ccc(-n2nc(C(C)(C)C)cc2NC(=O)Nc2ccc(OCc3ccnc(Nc4cncc(CC(=O)N(C)C)n4)c3)c3ccccc23)cc1 [Example 8, 2-(6-((4-(((4-(3-(3-(tert-butyl)-1-(p-tolyl)-1H-pyrazol-5-yl)ureido)naphthalen-1-yl)oxy)methyl)pyridin-2-yl)amino)pyrazin-2-yl)-N,N-dimethylacetamide]	− (−ve and +ve indicate the value is below and above, respectively, the no significant effect threshold defined as 30% inhibition at 10 μg/mL at the time point indicated)	+ (−ve and +ve indicate the value is below and above, respectively, the no significant effect threshold defined as 30% inhibition at 10 μg/mL at the time point indicated)
7.10	8.07	6.68	Cc1ccc(-n2nc(C(C)(C)C)cc2NC(=O)Nc2ccc(OCc3ccnc(Nc4cnc(CC(=O)N(C)C)cn4)c3)c3ccccc23)cc1 [Example 29]	− (−ve and +ve indicate the value is below and above, respectively, the no significant effect threshold defined as 30% inhibition at 10 μg/mL at the time point indicated)	+ (−ve and +ve indicate the value is below and above, respectively, the no significant effect threshold defined as 30% inhibition at 10 μg/mL at the time point indicated)
7.13	7.78	5.55	Cc1ccc(-n2nc(C(C)(C)C)cc2NC(=O)Nc2ccc(OCc3ccnc(Nc4cnc(C(=O)NCCN5CCOCC5)cn4)c3)c3ccccc23)cc1 [Example 17]	− (−ve and +ve indicate the value is below and above, respectively, the no significant effect threshold defined as 30% inhibition at 10 μg/mL at the time point indicated)	− (−ve and +ve indicate the value is below and above, respectively, the no significant effect threshold defined as 30% inhibition at 10 μg/mL at the time point indicated)
6.48	8.35	5.95	Cc1ccc(-n2nc(C(C)(C)C)cc2NC(=O)Nc2ccc(OCc3ccnc(Nc4cncc(C5CC5)n4)c3)c3ccccc23)s1 [Example 24]	− (−ve and +ve indicate the value is below and above, respectively, the no significant effect threshold defined as 30% inhibition at 10 μg/mL at the time point indicated)	− (−ve and +ve indicate the value is below and above, respectively, the no significant effect threshold defined as 30% inhibition at 10 μg/mL at the time point indicated)
6.36	7.60	< 5.30	Cc1ccc(-n2nc(C(C)(C)C)cc2NC(=O)Nc2ccc(OCc3ccnc(Nc4cnc(C)c(C)n4)c3)c3ccccc23)cc1 [Example 4, 1-(3-(tert-Butyl)-1-(p-tolyl)-1H-pyrazol-5-yl)-3-(4-((2-((5,6-dimethylpyrazin-2-yl)amino)pyridin-4-yl)methoxy)naphthalen-1-yl)urea]	− (−ve and +ve indicate the value is below and above, respectively, the no significant effect threshold defined as 30% inhibition at 10 μg/mL at the time point indicated)	− (−ve and +ve indicate the value is below and above, respectively, the no significant effect threshold defined as 30% inhibition at 10 μg/mL at the time point indicated)
6.77	7.59	< 4.79	Cc1ccc(-n2nc(C(C)(C)C)cc2NC(=O)Nc2ccc(OCc3ccnc(Nc4cnccn4)c3)c3ccccc23)cc1C [Example 51]	− (−ve and +ve indicate the value is below and above, respectively, the no significant effect threshold defined as 30% inhibition at 10 μg/mL at the time point indicated)	− (−ve and +ve indicate the value is below and above, respectively, the no significant effect threshold defined as 30% inhibition at 10 μg/mL at the time point indicated)
6.56	8.08	5.92	CC(C)(C)c1cc(NC(=O)Nc2ccc(OCc3ccnc(Nc4cncc(C5CC5)n4)c3)c3ccccc23)n(-c2ccc(O)cc2)n1 [Example 34]	− (−ve and +ve indicate the value is below and above, respectively, the no significant effect threshold defined as 30% inhibition at 10 μg/mL at the time point indicated)	− (−ve and +ve indicate the value is below and above, respectively, the no significant effect threshold defined as 30% inhibition at 10 μg/mL at the time point indicated)
6.63	8.26	5.47	Cc1ccc(-n2nc(C(C)(C)C)cc2NC(=O)Nc2ccc(OCc3ccnc(Nc4cncc(N(C)C)n4)c3)c3ccccc23)cc1 [Example 14]	− (−ve and +ve indicate the value is below and above, respectively, the no significant effect threshold defined as 30% inhibition at 10 μg/mL at the time point indicated)	− (−ve and +ve indicate the value is below and above, respectively, the no significant effect threshold defined as 30% inhibition at 10 μg/mL at the time point indicated)

Source: US11142515B2, “Pyrazolyl-ureas as kinase inhibitors” (RESPIVERT LIMITED, priority 2014, dated 2021)
